Data as given in PubChem BioAssay AID1963839 (Molecular Pharmacology Branch, DTP, NCI, 2024).

System: 817829-284-R-J1-PDC complex spheroid viability
Test: Anticancer human tumor 817829-284-R-J1-PDC patient-derived colon adenocarcinoma cell line growth inhibition [POLQ]
Conditions: for IC50: curve of first compound; for viability, T/C: stronger effect = lower value
Summary of the method: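 Complex spheroid viability model combining PDC tumour cells with endothelial (HUVEC) and MSC stromal cells. Novobiocin, ART-558 or RP6685 were tested singly and in combination with standard and investigational anticancer drugs. Each was titrated in half-log steps from near clinical Cmax, or from 10 microM where Cmax was unknown.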

[1] = second compound 0.0316 µM, first compound 0.00316 µM
[2] = second compound 0.0316 µM, first compound 0.01 µM
[3] = second compound 0.0316 µM, first compound 0.0316 µM
[4] = second compound 0.0316 µM, first compound 0.1 µM
[5] = second compound 0.0316 µM, first compound 0.316 µM
[6] = second compound 0.0316 µM, first compound 1 µM
[7] = second compound 0.1 µM, first compound 0.00316 µM
[8] = second compound 0.1 µM, first compound 0.01 µM
[9] = second compound 0.1 µM, first compound 0.0316 µM
[10] = second compound 0.1 µM, first compound 0.1 µM
[11] = second compound 0.1 µM, first compound 0.316 µM
[12] = second compound 0.1 µM, first compound 1 µM
[13] = second compound 0.316 µM, first compound 0.00316 µM
[14] = second compound 0.316 µM, first compound 0.01 µM
[15] = second compound 0.316 µM, first compound 0.0316 µM
[16] = second compound 0.316 µM, first compound 0.1 µM
[17] = second compound 0.316 µM, first compound 0.316 µM
[18] = second compound 0.316 µM, first compound 1 µM
[19] = second compound 1 µM, first compound 0.00316 µM
[20] = second compound 1 µM, first compound 0.01 µM
[21] = second compound 1 µM, first compound 0.0316 µM
[22] = second compound 1 µM, first compound 0.1 µM
[23] = second compound 1 µM, first compound 0.316 µM
[24] = second compound 1 µM, first compound 1 µM
[25] = second compound 3.16 µM, first compound 0.00316 µM
[26] = second compound 3.16 µM, first compound 0.01 µM
[27] = second compound 3.16 µM, first compound 0.0316 µM
[28] = second compound 3.16 µM, first compound 0.1 µM
[29] = second compound 3.16 µM, first compound 0.316 µM
[30] = second compound 3.16 µM, first compound 1 µM
[31] = second compound 10 µM, first compound 0.00316 µM
[32] = second compound 10 µM, first compound 0.01 µM
[33] = second compound 10 µM, first compound 0.0316 µM
[34] = second compound 10 µM, first compound 0.1 µM
[35] = second compound 10 µM, first compound 0.316 µM
[36] = second compound 10 µM, first compound 1 µM
[37] = second compound 0.0316 µM, first compound 3.16 µM
[38] = second compound 0.0316 µM, first compound 10 µM
[39] = second compound 0.1 µM, first compound 3.16 µM
[40] = second compound 0.1 µM, first compound 10 µM
[41] = second compound 0.316 µM, first compound 3.16 µM
[42] = second compound 0.316 µM, first compound 10 µM
[43] = second compound 1 µM, first compound 3.16 µM
[44] = second compound 1 µM, first compound 10 µM
[45] = second compound 3.16 µM, first compound 3.16 µM
[46] = second compound 3.16 µM, first compound 10 µM
[47] = second compound 10 µM, first compound 3.16 µM
[48] = second compound 10 µM, first compound 10 µM
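Further: spheroids exposed to compounds for 7 days.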
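Wherever viability, T/C is given: 100% = DMSO vehicle-treated spheroids.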

## C=CCn1c(=O)c2cnc(Nc3ccc(N4CCN(C)CC4)cc3)nc2n1-c1cccc(C(C)(C)O)n1 + Cc1cccc(N(C)C(=O)C2C(O)CCN2c2nc(C)cc(C(F)(F)F)c2C#N)c1
Second compound 0.0316 µM
  IC50: 155 nM
Second compound 0.1 µM
  IC50: 218 nM
Second compound 0.316 µM
  IC50: 259 nM
Second compound 1 µM
  IC50: 236 nM
Second compound 3.16 µM
  IC50: 258 nM
Second compound 10 µM
  IC50: 233 nM
[1]
  viability, T/C: 90.2%
[2]
  viability, T/C: 91.5%
[3]
  viability, T/C: 102%
[4]
  viability, T/C: 53.4%
[5]
  viability, T/C: 34.8%
[6]
  viability, T/C: 5.25%
[7]
  viability, T/C: 91.6%
[8]
  viability, T/C: 92.9%
[9]
  viability, T/C: 89.3%
[10]
  viability, T/C: 71.1%
[11]
  viability, T/C: 39.9%
[12]
  viability, T/C: 5.58%
[13]
  viability, T/C: 98.3%
[14]
  viability, T/C: 107%
[15]
  viability, T/C: 93.8%
[16]
  viability, T/C: 84.9%
[17]
  viability, T/C: 42.6%
[18]
  viability, T/C: 7.22%
[19]
  viability, T/C: 111%
[20]
  viability, T/C: 98.2%
[21]
  viability, T/C: 101%
[22]
  viability, T/C: 82.4%
[23]
  viability, T/C: 38.7%
[24]
  viability, T/C: 6.42%
[25]
  viability, T/C: 104%
[26]
  viability, T/C: 102%
[27]
  viability, T/C: 99.6%
[28]
  viability, T/C: 74.9%
[29]
  viability, T/C: 45.3%
[30]
  viability, T/C: 6.52%
[31]
  viability, T/C: 118%
[32]
  viability, T/C: 88.9%
[33]
  viability, T/C: 86.2%
[34]
  viability, T/C: 79.4%
[35]
  viability, T/C: 39.5%
[36]
  viability, T/C: 5.63%

## CCc1c2c(nc3ccc(O)cc13)-c1cc3c(c(=O)n1C2)COC(=O)[C@]3(O)CC + Cc1cccc(N(C)C(=O)C2C(O)CCN2c2nc(C)cc(C(F)(F)F)c2C#N)c1
Second compound 0.0316 µM
  IC50: < 3.16 nM
Second compound 0.1 µM
  IC50: < 3.16 nM
Second compound 0.316 µM
  IC50: < 3.16 nM
Second compound 1 µM
  IC50: < 3.16 nM
Second compound 3.16 µM
  IC50: < 3.16 nM
Second compound 10 µM
  IC50: < 3.16 nM
[1]
  viability, T/C: 25.3%
[2]
  viability, T/C: 19%
[3]
  viability, T/C: 13.3%
[4]
  viability, T/C: 7.02%
[5]
  viability, T/C: 5.47%
[6]
  viability, T/C: 2.88%
[7]
  viability, T/C: 24.9%
[8]
  viability, T/C: 16.9%
[9]
  viability, T/C: 11.1%
[10]
  viability, T/C: 8.13%
[11]
  viability, T/C: 5.27%
[12]
  viability, T/C: 3.6%
[13]
  viability, T/C: 16.9%
[14]
  viability, T/C: 15.3%
[15]
  viability, T/C: 11.9%
[16]
  viability, T/C: 9.03%
[17]
  viability, T/C: 5.25%
[18]
  viability, T/C: 3.06%
[19]
  viability, T/C: 24.7%
[20]
  viability, T/C: 18.8%
[21]
  viability, T/C: 11.3%
[22]
  viability, T/C: 5.74%
[23]
  viability, T/C: 5.46%
[24]
  viability, T/C: 3.33%
[25]
  viability, T/C: 19.6%
[26]
  viability, T/C: 15.9%
[27]
  viability, T/C: 12.5%
[28]
  viability, T/C: 8.19%
[29]
  viability, T/C: 4.73%
[30]
  viability, T/C: 2.56%
[31]
  viability, T/C: 20.8%
[32]
  viability, T/C: 17%
[33]
  viability, T/C: 11.3%
[34]
  viability, T/C: 7.07%
[35]
  viability, T/C: 5.05%
[36]
  viability, T/C: 2.83%

## CNCc1ccc(-c2[nH]c3cc(F)cc4c3c2CCNC4=O)cc1 + Cc1cccc(N(C)C(=O)C2C(O)CCN2c2nc(C)cc(C(F)(F)F)c2C#N)c1
Second compound 0.0316 µM
  IC50: 2240 nM
Second compound 0.1 µM
  IC50: 7640 nM
Second compound 0.316 µM
  IC50: 3410 nM
Second compound 1 µM
  IC50: 2690 nM
Second compound 3.16 µM
  IC50: 3320 nM
Second compound 10 µM
  IC50: 3840 nM
[3]
  viability, T/C: 87.5%
[4]
  viability, T/C: 67.2%
[5]
  viability, T/C: 68.4%
[6]
  viability, T/C: 58.2%
[37]
  viability, T/C: 49.9%
[38]
  viability, T/C: 33.9%
[9]
  viability, T/C: 74.9%
[10]
  viability, T/C: 67.8%
[11]
  viability, T/C: 86.7%
[12]
  viability, T/C: 60.4%
[39]
  viability, T/C: 74.7%
[40]
  viability, T/C: 43%
[15]
  viability, T/C: 97.8%
[16]
  viability, T/C: 76.5%
[17]
  viability, T/C: 70.5%
[18]
  viability, T/C: 66.6%
[41]
  viability, T/C: 53.7%
[42]
  viability, T/C: 36.3%
[21]
  viability, T/C: 104%
[22]
  viability, T/C: 71.9%
[23]
  viability, T/C: 86.4%
[24]
  viability, T/C: 55.9%
[43]
  viability, T/C: 51.8%
[44]
  viability, T/C: 33.1%
[27]
  viability, T/C: 82.4%
[28]
  viability, T/C: 54.2%
[29]
  viability, T/C: 79.1%
[30]
  viability, T/C: 77.9%
[45]
  viability, T/C: 50.9%
[46]
  viability, T/C: 30.3%
[33]
  viability, T/C: 70.9%
[34]
  viability, T/C: 78.1%
[35]
  viability, T/C: 67.1%
[36]
  viability, T/C: 62.5%
[47]
  viability, T/C: 55.6%
[48]
  viability, T/C: 31.4%

## O=C(c1cc(Cc2n[nH]c(=O)c3ccccc23)ccc1F)N1CCN(C(=O)C2CC2)CC1 + Cc1cccc(N(C)C(=O)C2C(O)CCN2c2nc(C)cc(C(F)(F)F)c2C#N)c1
Second compound 0.0316 µM
  IC50: 4010 nM
Second compound 0.1 µM
  IC50: 1860 nM
Second compound 0.316 µM
  IC50: 2630 nM
Second compound 1 µM
  IC50: 2910 nM
Second compound 3.16 µM
  IC50: 3650 nM
Second compound 10 µM
  IC50: 4540 nM
[3]
  viability, T/C: 75.4%
[4]
  viability, T/C: 97.7%
[5]
  viability, T/C: 89.7%
[6]
  viability, T/C: 69.4%
[37]
  viability, T/C: 59.6%
[38]
  viability, T/C: 21.8%
[9]
  viability, T/C: 84.1%
[10]
  viability, T/C: 75.5%
[11]
  viability, T/C: 93.3%
[12]
  viability, T/C: 60.7%
[39]
  viability, T/C: 42.4%
[40]
  viability, T/C: 28.9%
[15]
  viability, T/C: 119%
[16]
  viability, T/C: 61.2%
[17]
  viability, T/C: 78.2%
[18]
  viability, T/C: 82.7%
[41]
  viability, T/C: 44.5%
[42]
  viability, T/C: 26.3%
[21]
  viability, T/C: 104%
[22]
  viability, T/C: 100%
[23]
  viability, T/C: 74.2%
[24]
  viability, T/C: 66.4%
[43]
  viability, T/C: 54.2%
[44]
  viability, T/C: 26.6%
[27]
  viability, T/C: 108%
[28]
  viability, T/C: 111%
[29]
  viability, T/C: 81.6%
[30]
  viability, T/C: 64.4%
[45]
  viability, T/C: 60.3%
[46]
  viability, T/C: 30.2%
[33]
  viability, T/C: 115%
[34]
  viability, T/C: 87.6%
[35]
  viability, T/C: 104%
[36]
  viability, T/C: 76.2%
[47]
  viability, T/C: 64.6%
[48]
  viability, T/C: 25.2%
